Key:
Experiment in all cases: Test C preemergence
Type in all cases: in vivo
[1] = system: Galium (catchweed bedstraw, Galium aparine); settings: for Plant response rating, Galium: scale 0 to 100, 0 no effect, 100 complete control
Method in brief: (§1)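 Preemergence: sow in loam-sand soil and treat. Postemergence: grow in peat-moss/vermiculite medium to 2–18 cm (1–4 leaves) and spray. Compound in non-phytotoxic solvent with surfactant; keep in greenhouse 13–15 d; score visually against controls, 0 (none) to 100 (full control).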

[2] = system: barnyardgrass (Echinochloa crus-galli); settings: for Plant response rating, Barnyardgrass: scale 0 to 100, 0 no effect, 100 complete control
Method in brief: as §1

[3] = system: blackgrass (Alopecurus myosuroides); settings: for Plant response rating, Blackgrass: scale 0 to 100, 0 no effect, 100 complete control
Method in brief: as §1

corn (Zea mays) = settings: for Plant response rating, Corn: scale 0 to 100, 0 no effect, 100 complete control
Method in brief: as §1

[4] = system: crabgrass, large (large crabgrass, Digitaria sanguinalis); settings: for Plant response rating, Crabgrass, Large: scale 0 to 100, 0 no effect, 100 complete control
Method in brief: as §1

[5] = system: foxtail, giant (giant foxtail, Setaria faberii); settings: for Plant response rating, Foxtail, Giant: scale 0 to 100, 0 no effect, 100 complete control
Method in brief: as §1

[6] = system: johnsongrass (Sorghum halepense); settings: for Plant response rating, Johnsongrass: scale 0 to 100, 0 no effect, 100 complete control
Method in brief: as §1

[7] = system: lambsquarters (Chenopodium album); settings: for Plant response rating, Lambsquarters: scale 0 to 100, 0 no effect, 100 complete control
Method in brief: as §1

[8] = system: morningglory (Ipomoea coccinea); settings: for Plant response rating, Morningglory: scale 0 to 100, 0 no effect, 100 complete control
Method in brief: as §1

[9] = system: nutsedge, yellow (yellow nutsedge, Cyperus esculentus); settings: for Plant response rating, Nutsedge, Yellow: scale 0 to 100, 0 no effect, 100 complete control
Method in brief: as §1

[10] = system: oilseed rape (Brassica napus); settings: for Plant response rating, Oilseed Rape: scale 0 to 100, 0 no effect, 100 complete control
Method in brief: as §1

[11] = system: ragweed (common ragweed, Ambrosia elatior); settings: for Plant response rating, Ragweed: scale 0 to 100, 0 no effect, 100 complete control
Method in brief: as §1

[12] = system: ryegrass, Italian (Italian ryegrass, Lolium multiflorum); settings: for Plant response rating, Ryegrass, Italian: scale 0 to 100, 0 no effect, 100 complete control
Method in brief: as §1

soybean (Glycine max) = settings: for Plant response rating, Soybean: scale 0 to 100, 0 no effect, 100 complete control
Method in brief: as §1

[13] = system: velvetleaf (Abutilon theophrasti); settings: for Plant response rating, Velvetleaf: scale 0 to 100, 0 no effect, 100 complete control
Method in brief: as §1

[14] = system: waterhemp (common waterhemp, Amaranthus rudis); settings: for Plant response rating, Waterhemp: scale 0 to 100, 0 no effect, 100 complete control
Method in brief: as §1

[15] = system: wheat (winter wheat, Triticum aestivum); settings: for Plant response rating, Wheat: scale 0 to 100, 0 no effect, 100 complete control
Method in brief: as §1

[16] = 31 g ai/ha, 0 is no effect, 100 is complete control

O=C1NCC(c2cccc(OC(F)(F)C(F)F)c2)C1C(=O)Nc1ccccc1F (racemic) [Compound 695]
55: Plant response rating, Velvetleaf ([13]; 250 g ai/ha) | Plant response rating (scale of 0 to 100), Waterhemp [14, 16]
50: Plant response rating (scale of 0 to 100), Galium [1, 16]
65: Plant response rating, Lambsquarters ([7]; 125 g ai/ha)
80: Plant response rating, Galium ([1]; 62 g ai/ha) | Plant response rating, Corn (corn (Zea mays); 250 g ai/ha) | Plant response rating (scale of 0 to 100), Foxtail, Giant [5, 16] | Plant response rating, Johnsongrass ([6]; 62 g ai/ha) | Plant response rating, Johnsongrass ([6]; 125 g ai/ha) | Plant response rating, Lambsquarters ([7]; 250 g ai/ha) | Plant response rating, Oilseed Rape ([10]; 250 g ai/ha) | Plant response rating, Ragweed ([11]; 250 g ai/ha)
95: Plant response rating, Crabgrass, Large ([4]; 125 g ai/ha) | Plant response rating, Crabgrass, Large ([4]; 250 g ai/ha)
5: Plant response rating, Morningglory ([8]; 125 g ai/ha) | Plant response rating, Wheat ([15]; 62 g ai/ha)
30: Plant response rating, Ryegrass, Italian ([12]; 125 g ai/ha) | Plant response rating, Ryegrass, Italian ([12]; 250 g ai/ha) | Plant response rating, Velvetleaf ([13]; 125 g ai/ha)
35: Plant response rating (scale of 0 to 100), Ragweed [11, 16] | Plant response rating, Wheat ([15]; 125 g ai/ha)
90: Plant response rating, Galium ([1]; 250 g ai/ha) | Plant response rating (scale of 0 to 100), Barnyardgrass [2, 16] | Plant response rating, Barnyardgrass ([2]; 62 g ai/ha) | Plant response rating, Barnyardgrass ([2]; 125 g ai/ha) | Plant response rating, Barnyardgrass ([2]; 250 g ai/ha) | Plant response rating, Blackgrass ([3]; 125 g ai/ha) | Plant response rating, Blackgrass ([3]; 250 g ai/ha) | Plant response rating (scale of 0 to 100), Crabgrass, Large [4, 16] | Plant response rating, Crabgrass, Large ([4]; 62 g ai/ha) | Plant response rating, Foxtail, Giant ([5]; 125 g ai/ha) | Plant response rating, Foxtail, Giant ([5]; 250 g ai/ha)
85: Plant response rating, Galium ([1]; 125 g ai/ha) | Plant response rating, Foxtail, Giant ([5]; 62 g ai/ha) | Plant response rating, Johnsongrass ([6]; 250 g ai/ha) | Plant response rating, Oilseed Rape ([10]; 125 g ai/ha) | Plant response rating, Waterhemp ([14]; 250 g ai/ha)
25: Plant response rating, Corn (corn (Zea mays); 62 g ai/ha) | Plant response rating (scale of 0 to 100), Lambsquarters [7, 16]
20: Plant response rating, Blackgrass ([3]; 62 g ai/ha)
60: Plant response rating, Ryegrass, Italian ([12]; 62 g ai/ha) | Plant response rating, Wheat ([15]; 250 g ai/ha)
10: Plant response rating, Morningglory ([8]; 250 g ai/ha) | Plant response rating, Velvetleaf ([13]; 62 g ai/ha)
75: Plant response rating, Ragweed ([11]; 125 g ai/ha) | Plant response rating, Waterhemp ([14]; 62 g ai/ha)
40: Plant response rating (scale of 0 to 100), Johnsongrass [6, 16] | Plant response rating, Lambsquarters ([7]; 62 g ai/ha) | Plant response rating, Oilseed Rape ([10]; 62 g ai/ha) | Plant response rating (scale of 0 to 100), Wheat [15, 16]
70: Plant response rating, Corn (corn (Zea mays); 125 g ai/ha) | Plant response rating, Ragweed ([11]; 62 g ai/ha) | Plant response rating, Waterhemp ([14]; 125 g ai/ha)
0: Plant response rating (scale of 0 to 100), Blackgrass [3, 16] | Plant response rating (scale of 0 to 100), Corn (corn (Zea mays); [16]) | Plant response rating (scale of 0 to 100), Morningglory [8, 16] | Plant response rating, Morningglory ([8]; 62 g ai/ha) | Plant response rating (scale of 0 to 100), Nutsedge, Yellow [9, 16] | Plant response rating, Nutsedge, Yellow ([9]; 62 g ai/ha) | Plant response rating, Nutsedge, Yellow ([9]; 125 g ai/ha) | Plant response rating, Nutsedge, Yellow ([9]; 250 g ai/ha) | Plant response rating (scale of 0 to 100), Oilseed Rape [10, 16] | Plant response rating (scale of 0 to 100), Ryegrass, Italian [12, 16] | Plant response rating (scale of 0 to 100), Soybean (soybean (Glycine max); [16]) | Plant response rating, Soybean (soybean (Glycine max); 62 g ai/ha) | Plant response rating, Soybean (soybean (Glycine max); 125 g ai/ha) | Plant response rating, Soybean (soybean (Glycine max); 250 g ai/ha) | Plant response rating (scale of 0 to 100), Velvetleaf [13, 16]

Reference: patent publication US12077503B2, “Substituted cyclic amides and their use as herbicides” (FMC CORPORATION, priority 2015, dated 2024)
